Where “and” joins values, the source holds several entries; their conditions need not be identical. Identical values can stand only once. Non-standard residues stand in square brackets, D forms with d. Residues, ends and D or L forms follow the SMILES beside them. No end group written: not given here. Dmt = Cc1cc(O)cc(C)c1C[C@H](N)C(=O)O
Columns and labels:
[1] = system: retinal ganglion cells (RGCs); test: Safety and efficacy of acute intravitreal administration, PERG before and after SI-TON, Example 5; format: in vivo, C57BL/6 J mice
Method: To determine the safety of acute intravitreal administration of aromatic-cationic peptides in vivo, SI-TON was induced in 3-month-old C57BL/6 J mice with a Branson Digital Sonifier 450 (Branson) by a 3 mm microtip probe (Branson) in an acoustic soundproof enclosure chamber, as described in Example 2. Fifteen minutes following the induction of TON, a group of ten mice were administered 1.3 μL of 100 nM D-Arg-2′6′-Dmt-Lys-Phe-NH2 (MTP-131) intravitreally in the left eye (OS, treated). A different subset of mice was administered control PBS solution intravitreally in the left eye (OS, treated) followed by subcutaneous injection with 5 mg/kg D-Arg-2′6′-Dmt-Lys-Phe-NH2 fifteen minutes post-injury. A baseline recording of the mice visual function was recorded using electrophysiological recording of RGCs through PERG prior to SI-TON induction and the functional visual outcome of the mice was tested again 4 weeks post-injury.

[2] = system: retinal ganglion cells (RGCs); test: Sequential administration study, PERG after US-TON (SI-TON), Example 4; format: in vivo, mice; conditions: 5 mg/kg 4-AP added to any formulation from two weeks post-injury, two and four weeks post treatment
Method: (§1) The sequential administration study was conducted as depicted in FIG. 4. A baseline visual function of retinal ganglion cells (RGCs) was obtained using pattern electroretinography (PERG) to record the electrical activity of RGCs, Optical Coherence Tomography (OCT) to evaluate the thickness of the Retinal Nerve Fiber Layer (RNFL), and Heidelberg Retina Topography (HRT) to evaluate subtle changes in the optic nerve caused by trauma. At day zero, US-TON (SI-TON) was induced by a microtip probe sonifier placed on the supraorbital ridge directly above the entrance of the optic nerve into the bony canal, as described in Example 2.
(§2) On the first day, six mice were administered either a bolus subcutaneous injection of 3 mg/kg ([…]) Etanercept (Enbrel™, Groups 1 and 2), 10 mg/kg (300 μg per 30 g mouse) D-Arg-2′6′-Dmt-Lys-Phe-NH2(MTP-131, Groups 3 and 4), or PBS (Groups 5 and 6), followed by daily injections of the drug formulation for a period of 3 days. On the sixth day, Groups 1 and 2 were administered a bolus subcutaneous injection of 10 mg/kg (300 μg per 30 g mouse) D-Arg-2′6′-Dmt-Lys-Phe-NH2; Groups 3 and 4 were administered a bolus subcutaneous injection of 3 mg/kg ([…]) Etanercept; and Groups 5 and 6 received PBS, followed by daily injections of the drug formulation for three days. […]

[3] = system: Retinal Nerve Fiber Layer (RNFL) and Inner Plexiform Layer (IPL); test: Sequential administration study, OCT thickness of RNFL and IPL after US-TON (SI-TON), Example 4; format: in vivo, mice; conditions: four weeks after treatments
Method: as §1, §2

[4] = system: subjects suspected of having or diagnosed as having TON; test: Treatment of subjects with TON, Example 1 (predicted); format: in vivo; conditions: for effect in combination with one or more additional therapeutic agents: compared with peptide or additional agent alone, expected; for severity of symptoms associated with TON: daily 1 mg/kg body weight, predicted
Method: Subjects suspected of having or diagnosed as having TON receive daily administrations of 1 mg/kg body weight of aromatic-cationic peptide, such as 2′6′-Dmt-D-Arg-Phe-Lys-NH2, Phe-D-Arg-Phe-Lys-NH2, or D-Arg-2′6′-Dmt-Lys-Phe-NH2, or a pharmaceutically acceptable salt thereof (such as an mono, bis, or tri-acetate salt, a tartrate salt, a fumarate salt, a mono, bis, or tri-HCl salt, a mono, bis, or tri-tosylate salt, or a mono, bis, or tri-trifluoroacetate salt) alone or in combination with one or more additional therapeutic agents for the treatment or prevention of TON. Peptides and/or additional therapeutic agents are administered orally, topically, systemically, intravenously, subcutaneously, intravitreally, intraperitoneally, or intramuscularly according to methods known in the art. Subjects will be evaluated weekly for the presence and/or severity of signs and symptoms associated with TON including, but not limited to, e.g., vision loss, blurred vision, RGC damage, scotoma, decreased color sensation, uveitis, optic neuritis, eye pain, optic nerve avulsion, optic nerve transection, optic nerve sheath hemorrhage, orbital hemorrhage, choroidal rupture, and commotio retinae. Treatments are maintained until such a time as one or more signs or symptoms of TON are ameliorated or eliminated.

[5] = system: several mammalian cell types; conditions: energy-independent manner; cited from earlier work
[6] = system: retinal ganglion cells (RGC); test: RGC survival in sonication-induced TON (SI-TON) model, Example 2; format: in vivo, mice; conditions: two weeks following injury, early use, peptide 2 mg/kg SQ for 7 days
From the text: SI-TON is induced by a microtip probe sonifier placed on the supraorbital ridge directly above the entrance of the optic nerve into the bony canal, as described in Tao, W. et al., Scientific Reports (2017) 7: 11779 (incorporated herein by reference). An ultrasonic pulse is then delivered to the optic nerve. After injury, the number of RGCs in the retina as well as visual function measured by PERG steadily decrease over a two-week period. […] The SI-TON model is capable of delivering a non-contact concussive injury to the optic nerve and induce TON in mice.
Two models for TON were utilized in this example: a novel sonication-induced TON (SI-TON) that closely recapitulates the clinical manifestations of indirect TON, and optic nerve crush-induced TON (ONC-TON) which reflects a more severe form of TON often resulting in axotomized nerve fibers and ruptured nervous vasculature. […]
(§3) A baseline recording of visual function by pattern electroretinogram (PERG) and imaging of the optic disc was performed prior to inducing SI-TON or ONC-TON. […] Euthanized animals were evaluated for RGC dropout by flat mount. […]
To test if a combinatorial strategy results in improved visual outcomes, a therapeutic agent, such as a TNF-alpha inhibitor (e.g., etanercept), D-Arg-2′6′-Dmt-Lys-Phe-NH2, or a combination of these pharmaceutical agents was assessed. […] Euthanized animals were evaluated for RGC dropout by flat mount. […]

[7] = system: retinal ganglion cells (RGC); test: RGC survival in optic nerve crush-induced TON (ONC-TON) model, Example 2; format: in vivo, rat; conditions: two weeks following injury, early use, peptide 2 mg/kg SQ for 7 days
From the text: ONC-TON is induced by exposing the optic nerve of an adult rat and creating a small opening in the meninges of the nerve, as described in Solomon, A. et al., J. of Neurosci. Methods (1996) 70: 21-25, (incorporated herein by reference). The opening is created about 2-3 mm behind the eye globe. A glass dissector is introduced through the opening and is used to cut all the axons through the whole width of the nerve. Complete […] of the optic nerve axons is achieved, while retaining the continuity of the meninges and avoiding damage to the nerve's vascular supply. Transection can be confirmed by transillumination showing a complete gap in the continuity of the nerve axons, and by both morphological and electrophysiological criteria. The opening created in the ‘meningeal tube’ can be used to inject substances that may be of benefit in recovery, rescue and/or regeneration of the injured axons. […]
as §3
To test if a combinatorial strategy results in improved visual outcomes, a therapeutic agent, such as a TNF-alpha inhibitor (e.g., etanercept), D-Arg-2′6′-Dmt-Lys-Phe-NH2, or a combination of these pharmaceutical agents was assessed. […]

## Cc1cc(O)cc(C)c1C[C@H](NC(=O)[C@H](N)CCCNC(=N)N)C(=O)N[C@@H](CCCCN)C(=O)N[C@@H](Cc1ccccc1)C(N)=O [D-Arg-2′6′-Dmt-Lys-Phe-NH2] (H-[dR][Dmt]KF-NH2)
[1]; acute intravitreal injection, 1.3 μL of 100 nM
  safety of direct application to the eye: did not show evidence of toxicity
[1]; uninjured baseline, left eye
  baseline electrophysiological recording of RGCs (PERG), treated vs control: substantially similar

## Nc1ccncc1 [4-AP, 4-aminopyridine]
[2]
  RGC electrical activity measured by PERG: significantly increased RGC electrical activity
[3]
  RNFL and IPL thickness by OCT: did not significantly improve

## 2′6′-Dmt-D-Arg-Phe-Lys-NH2
[4]
  effect in combination with one or more additional therapeutic agents: synergistic effects
  severity of symptoms associated with TON: reduced severity or elimination of one or more symptoms associated with TON
[5]
  penetration of the plasma membrane: readily penetrates the plasma membrane

## etanercept
[6]
  percent RGC survival: 97.08% and 97.08±2.21%
[7]
  percent RGC survival: 48.94% and 48.94±1.94%

## F[dR]FK-NH2
[4]
  effect in combination with one or more additional therapeutic agents: synergistic effects
  severity of symptoms associated with TON: reduced severity or elimination of one or more symptoms associated with TON
